Data published in the supplement of paper PMC10307832.

Key:
Assay in all cases: relative viability (nuclei count vs DMSO), 5 days (fraction); higher = more cells survive
[1] = compound: CC(C)(C)c1cc(NC(=O)Nc2ccc(-c3cn4c(n3)sc3cc(OCCN5CCOCC5)ccc34)cc2)no1 [Quizartinib] + COc1cc2c(Oc3ccc(NC(=O)C4(C(=O)Nc5ccc(F)cc5)CC4)cc3F)ccnc2cc1OCCCN1CCOCC1 [Foretinib] (partner 0.25 µM)
Method in brief: (§1)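 Values are medians from duplicate plates. Each reflects relative viability, defined as the nuclei count of treated wells over that of vehicle wells. Lung cancer cell lines in 1536-well plates were pin-tool dosed one day after seeding with one drug alone or with a fixed anchor-drug dose plus five library-drug doses (not always all listed) in √10 steps, then fixed, stained and imaged at 4× after 5 days.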

[2] = compound: CC(C)(C)c1cc(NC(=O)Nc2ccc(-c3cn4c(n3)sc3cc(OCCN5CCOCC5)ccc34)cc2)no1 [Quizartinib] + O=C(CCCCCCC(=O)Nc1ccccc1)NO [Vorinostat] (partner 1 µM)
Method in brief: as §1

[3] = compound: COCC[n+]1c2c(n(Cc3cnccn3)c1C)C(=O)c1ccccc1C2=O [YM155] + CC(=O)Nc1cccc(-n2c(=O)n(C3CC3)c(=O)c3c(Nc4ccc(I)cc4F)n(C)c(=O)c(C)c32)c1 [Trametinib] (partner 0.02 µM)
Method in brief: as §1

[4] = compound: COCC[n+]1c2c(n(Cc3cnccn3)c1C)C(=O)c1ccccc1C2=O [YM155] + CC1(C)CCC(c2ccc(Cl)cc2)=C(CN2CCN(c3ccc(C(=O)NS(=O)(=O)c4ccc(N[C@H](CCN5CCOCC5)CSc5ccccc5)c(S(=O)(=O)C(F)(F)F)c4)cc3)CC2)C1 [Navitoclax] (partner 0.5 µM)
Method in brief: as §1

Cell Line | relative viability ([1]; first compound 0.001 µM) | relative viability ([1]; first compound 0.003162 µM) | relative viability ([1]; first compound 0.01 µM) | relative viability ([1]; first compound 0.03162 µM) | relative viability ([1]; first compound 0.1 µM) | relative viability ([2]; first compound 0.001 µM) | relative viability ([2]; first compound 0.003162 µM) | relative viability ([2]; first compound 0.01 µM) | relative viability ([2]; first compound 0.03162 µM) | relative viability ([2]; first compound 0.1 µM) | relative viability ([3]; first compound 0.002 µM) | relative viability ([3]; first compound 0.006325 µM) | relative viability ([3]; first compound 0.02 µM) | relative viability ([3]; first compound 0.06325 µM) | relative viability ([4]; first compound 0.002 µM) | relative viability ([4]; first compound 0.006325 µM) | relative viability ([4]; first compound 0.02 µM) | relative viability ([4]; first compound 0.06325 µM)
NCI-H1734 | 0.693 | 0.776 | 0.933 | 0.862 | 0.802 | 0.748 | 0.802 | 0.796 | 0.746 | 0.854 | 0.672 | 0.658 | 0.724 | 0.741 | 0.867 | 0.88 | 0.835 | 0.876
201T | 1.07 | 0.998 | 1.09 | 0.942 | 1.01 | 1 | 0.982 | 0.963 | 0.965 | 0.992 | 0.701 | 0.72 | 0.702 | 0.761 | 1.26 | 1.18 | 1.17 | 1.23
PC-3 [JPC-3] | 0.947 | 1.03 | 1.11 | 1.04 | 1.07 | 0.758 | 0.889 | 0.55 | 0.596 | 0.912 | 0.774 | 0.666 | 0.685 | 0.598 | 0.867 | 0.847 | 0.871 | 0.887
HCC-827 | 1.02 | 0.922 | 1.07 | 1.06 | 1.07 | 0.797 | 0.881 | – | 0.724 | 0.886 | 0.528 | 0.531 | 0.605 | 0.628 | 1.03 | 1.11 | 1.01 | 0.992
LXF-289 | 0.913 | 1 | 1.13 | 0.948 | 0.888 | 0.645 | 0.752 | 0.782 | 0.726 | 0.738 | 0.665 | 0.746 | 0.697 | 0.711 | 0.94 | 0.949 | 0.957 | 0.87
NCI-H520 | 0.81 | 0.636 | 0.894 | 0.722 | 0.541 | – | 0.607 | 0.768 | 0.61 | 0.573 | 0.735 | 0.599 | 0.75 | 0.741 | 1.15 | 0.991 | 1.07 | 1.03
RERF-LC-KJ | 0.844 | 0.828 | 0.888 | 0.926 | 0.804 | 0.58 | 0.707 | 0.751 | 0.53 | 0.691 | 0.896 | 0.952 | 0.942 | 0.707 | 1.04 | 1.07 | 0.974 | 1.06
NCI-H3122 | 0.919 | 0.918 | 0.988 | 0.953 | 0.965 | 0.89 | 0.799 | 0.915 | 1 | 0.994 | 0.191 | 0.202 | 0.242 | 0.203 | 0.969 | 1.04 | 1.02 | 1.05
HARA | – | 0.832 | 0.952 | 0.942 | 0.913 | 0.468 | 0.47 | 0.553 | 0.677 | 0.426 | – | 0.996 | 0.629 | 0.676 | 1.11 | 1.14 | 1.13 | 1.14
